Where a name gives a salt, the structure may show the parent alone.

The target in the first test is T1, human GPR10 (Homo sapiens (Human), UniProt P49683). The test can be described thus: Antagonistic activity on PrRP-induced intracellular calcium mobilization in human GPR10-expressing HEK293 cells. Format: cell-based. To be noted: PrRP 1 nM-induced intracellular calcium mobilization, Fluo-8. Here is the method: Pharmacological Test 2 Antagonistic Activity on GPR10 Using Human GPR10-Expressing HEK293 Cells.
T1 sequence (P49683 whole entry): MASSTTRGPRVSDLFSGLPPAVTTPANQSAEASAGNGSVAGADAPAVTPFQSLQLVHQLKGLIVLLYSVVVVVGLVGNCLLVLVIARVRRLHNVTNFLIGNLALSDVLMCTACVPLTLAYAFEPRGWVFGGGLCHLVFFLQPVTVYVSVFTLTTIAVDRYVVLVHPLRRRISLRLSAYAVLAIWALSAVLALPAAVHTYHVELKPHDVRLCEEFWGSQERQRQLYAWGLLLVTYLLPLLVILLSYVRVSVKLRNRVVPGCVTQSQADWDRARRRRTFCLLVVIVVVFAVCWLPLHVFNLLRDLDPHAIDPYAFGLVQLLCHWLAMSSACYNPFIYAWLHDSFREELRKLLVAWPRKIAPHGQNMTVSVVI
Antagonistic activity of test compounds on PrRP-induced intracellular calcium mobilization was evaluated using GPR10-expressing HEK293 cells.
HEK293 cells expressing human GPR10 were maintained in Dulbecco's Modified Eagles' medium supplemented with 10% fetal bovine serum, 1% penicillin-streptomycin and 20 mM HEPES at 37° C. in a 5% CO2 incubator. GPR10-expressing HEK293 cells were placed in poly-D-lysine coated 96-well culture plates and cultured for 18-24 hr before the test at a density of 3×10^4 cells/well. […] The cells were incubated with test compounds for 15 min at room temperature, and then PrRP (the final concentration, 1 nM) was added into the medium. The changes in intracellular calcium-dependent fluorescence were monitored using a fluorescence imaging plate reader (FDSS3000, Hamamatsu Photonics K.K.). Fluo-8 fluorescence was measured with excitation at 490 nm and emission at 520 nm. The calcium-dependent fluorescence intensity was calculated by subtracting basal intensity (average intensity for 30 sec before agonist stimulation) from peak intensity for 60 sec after PrRP-stimulation, and then IC50 values were determined by nonlinear curve-fitting program, GraphPad Prism 5.
(In general: Calcium assays in cells follow changes in intracellular calcium, usually with a dye or a luminescent sensor.)
By IC50 is commonly meant the concentration that gives 50% inhibition. As to `C#CCn1c(N[C@@H](C)c2ccc(C(F)(F)F)cc2)nc2c(c1=O)CN(C(=O)c1ccc(C#N)cc1F)CC2` [Example 1, 6-(4-cyano-2-fluorobenzoyl)-3-propargyl-2-(S)-{1-[4-(trifluoromethyl)phenyl]ethylamino}-5,6,7,8-tetrahydropyrido[4,3-d]pyrimidin-4-(3H)-one hydrochloride], the IC50 worked out at 42 nM.
The same measure, in the same setting: with `C#CCn1c(N[C@@H](C)c2ccc(C(F)(F)F)cc2)nc2c(c1=O)CN(C(=O)c1ccc(Cl)cc1)CC2` [Example 2, 6-(4-chlorobenzoyl)-3-propargyl-2-(S)-{1-[4-(trifluoromethyl)phenyl]ethylamino}-5,6,7,8-tetrahydropyrido[4,3-d]pyrimidin-4-(3H)-one hydrochloride] the figure was 378 nM; with `C#CCn1c(N[C@@H](C)c2ccc(Cl)cc2)nc2c(c1=O)CN(C(=O)c1ccc(Cl)cc1)CC2` [Example 3, 6-(4-chlorobenzoyl)-3-propargyl-2-(S)-{1-[4-chlorophenyl]ethylamino}-5,6,7,8-tetrahydropyrido[4,3-d]pyrimidin-4-(3H)-one], 1720 nM.

The target in a further test is T1, human GPR10. Nature of the test: Inhibitory activity on binding of [3H]-PrRP to GPR10 (HEK 293 cell membrane fraction). To be noted: [3H]-PrRP 1 nM, human GPR10-expressing HEK 293 cell membrane fraction; Ki from IC50 by Cheng-Prussoff formula. The protocol:
Inhibitory Activity on Binding of [^3H]-PrRP to GPR10
Human GPR10 receptor expressing human embryonic kidney cells, HEK 293 cells, were cultured in Dulbecco's Modified Eagle's medium supplemented with 10% fetal bovine serum and 1% penicilline-streptmycin at 37° C., in 5% carbon dioxide gas conditions. The medium was removed and the cells were recovered in a phosphate buffer to prepare a cell suspension. The cell suspension was homogenated on ice by an ultrasonic cell homogenizer (Microson™ type XL200) and centrifuged at 40,000 g for 10 minutes at 4° C. After the supernatant was discarded, Buffer A (20 mM HEPES, 10 mM EDTA, 1 μl/ml protease inhibiting cocktail, pH 7.4) was added to the pellet. The pellet was suspended by the ultrasonic cell homogenizer, then the suspension was centrifuged at 40,000 g, for 10 minutes at 4° C. After this operation was repeated once again, the supernatant was discarded, Buffer B (20 mM HEPES, 0.1 mM EDTA, pH 7.4) was added to the pellet, and the pellet was suspended by the ultrasonic homogenizer. This was stored at a freezer of −80° C. as a cell membrane fraction until use in a binding test.
To each well of a 96-well plate, 150 μl of assay buffer (20 mM HEPES, 10 mM EDTA, 1 μl/ml protease inhibiting agent cocktail, pH 7.4), 20 μl of cell membrane fraction, 10 μl of test compound and [^3H]-PrRP (final concentration 1 nM) were added and incubated at room temperature for 90 minutes. After completion of the reaction, using a cell harvester, the cell-membrane fraction sample product was filtered under aspiration by a glass fiber filter plate (Unifilter; GF/B) previously treated with 0.5% polyethylene imine. The filter was washed with a 50 mM Tris hydrochloric acid buffer (pH 7.4) three times. After the filter was dried in a dryer (50° C.) for about 3 hours, 40 μl of liquid scintillation cocktail (MicroScint-O) was added to each well and radio activity was measured by a scintillation counter (Packard Topcount). The radio activity in the presence of an excessive amount of non-labeled PrRP (final concentration: 100 nM) was regarded as non-specific binding.
The binding inhibition rate was calculated based on calculating formula: 100−(radio activity when a compound is added−radio activity of non-specific binding)÷(radio activity when a solvent is added−radio activity of non-specific binding)×100.
An IC50 value was calculated based on the concentration dependent reaction using a non-linear analysis program and a Ki value was calculated using Cheng-Prussoff formula.
One may read the Ki as a measure of affinity in units of concentration, obtained from inhibition or displacement. As for `C#CCn1c(N[C@@H](C)c2ccc(C(F)(F)F)cc2)nc2c(c1=O)CN(C(=O)c1ccc(C#N)cc1F)CC2` [Example 1, 6-(4-cyano-2-fluorobenzoyl)-3-propargyl-2-(S)-{1-[4-(trifluoromethyl)phenyl]ethylamino}-5,6,7,8-tetrahydropyrido[4,3-d]pyrimidin-4-(3H)-one hydrochloride], the affinity corresponds to a Ki of 5 nM.
Turning to `C#CCn1c(N[C@@H](C)c2ccc(C(F)(F)F)cc2)nc2c(c1=O)CN(C(=O)c1ccc(Cl)cc1)CC2` [Example 2, 6-(4-chlorobenzoyl)-3-propargyl-2-(S)-{1-[4-(trifluoromethyl)phenyl]ethylamino}-5,6,7,8-tetrahydropyrido[4,3-d]pyrimidin-4-(3H)-one hydrochloride], affinity was put at a Ki of 29 nM. This Ki lies about 5.8-fold higher than the previous one.
`C#CCn1c(N[C@@H](C)c2ccc(Cl)cc2)nc2c(c1=O)CN(C(=O)c1ccc(Cl)cc1)CC2` [Example 3, 6-(4-chlorobenzoyl)-3-propargyl-2-(S)-{1-[4-chlorophenyl]ethylamino}-5,6,7,8-tetrahydropyrido[4,3-d]pyrimidin-4-(3H)-one] registered a Ki of 42 nM.
Same read-out and setting: with `COn1c(N[C@@H](C)c2ccc(C(F)(F)F)cc2)nc2c(c1=O)CN(C(=O)COc1ccc(C#N)cc1)CC2` [Example 2468, 4-(2-{3-methoxy-4-oxo-2-[(S)-1-(4-trifluoromethylphenyl)ethylamino]-3,5,7,8-tetrahydro-4H-pyrido[4,3-d]pyrimidin-6-yl}-2-oxo-ethoxy)benzonitrile] the figure was 6 nM; with `COn1c(N[C@@H](C)C2CCCCC2)nc2c(c1=O)CN(C(=O)c1ccc(C#N)cc1F)CC2` [Example 2469, 4-[2-((S)-1-cyclohexylethylamino)-3-methoxy-4-oxo-3,5,7,8-tetrahydro-4H-pyrido[4,3-d]pyrimidine-6-carbonyl]-3-fluorobenzonitrile], 56 nM; with `COn1c(N[C@@H](C)C2CCCCC2)nc2c(c1=O)CN(C(=O)c1ccc(Cl)cc1)CC2` [Example 2470, 6-(4-chlorobenzoyl)-2-((S)-1-cyclohexyl-ethylamino)-3-methoxy-5,6,7,8-tetrahydro-3H-pyrido[4,3-d]pyrimidin-4-one], 108 nM.
On the same count and under the same terms, the result for `COn1c(N[C@@H](C)c2ccc(C(F)(F)F)cc2)nc2c(c1=O)CN(C(=O)c1cc3ccccc3s1)CC2` [Example 2474, 6-(benzo[b]thiophene-2-carbonyl)-3-methoxy-2-[(S)-1-(4-trifluoromethylphenyl)ethylamino]-5,6,7,8-tetrahydro-3H-pyrido[4,3-d]pyrimidin-4-one] reads 15 nM.
Same read-out and setting: the result for `COn1c(N2CCCC2c2ccc(C(F)(F)F)cc2)nc2c(c1=O)CN(C(=O)c1ccc(Cl)cc1)CC2` (centres unmarked) [Example 2475, 6-(4-chlorobenzoyl)-3-methoxy-2-[2-(4-trifluoromethylphenyl)pyrrolidin-1-yl]-5,6,7,8-tetrahydro-3H-pyrido[4,3-d]pyrimidin-4-one] reads 34 nM.
In turn, `C#CCn1c(N[C@@H](C)c2ccc(C(F)(F)F)cc2)nc2c(c1=O)CN(C(=O)c1cccc(C#N)c1)CC2` [Example 2476, 3-{4-oxo-3-(2-propynyl)-2-[(S)-1-(4-trifluoromethylphenyl)ethylamino]-3,5,7,8-tetrahydro-4H-pyrido[4,3-d]pyrimidine-6-carbonyl}benzonitrile] yielded a Ki of 9 nM.
Compound `COn1c(NCc2ccc(C(F)(F)F)cc2)nc2c(c1=O)CN(C(=O)c1ccc(Cl)cc1)CC2` [Example 2477, 6-(4-chlorobenzoyl)-3-methoxy-2-(4-trifluoromethylbenzylamino)-5,6,7,8-tetrahydro-3H-pyrido[4,3-d]pyrimidin-4-one hydrochloride] displayed a Ki of 39 nM.
`C#CCn1c(N[C@@H](C)c2ccc(C(F)(F)F)cc2)nc2c(c1=O)CN(C(=O)c1c(F)cccc1F)CC2` [Example 2478, 6-(2,6-difluorobenzoyl)-3-(2-propynyl)-2-[(S)-1-(4-trifluoromethylphenyl)ethylamino]-5,6,7,8-tetrahydro-3H-pyrido[4,3-d]pyrimidin-4-one] gave an inhibitory constant (Ki) of 9 nM.
Same read-out and setting: the result for `COn1c(N[C@H](c2ccc(Cl)cc2)C(C)C)nc2c(c1=O)CN(C(=O)c1ccc3c(c1)OCCO3)CC2` [Example 2479, 2-[(S)-1-(4-chlorophenyl)-2-methylpropylamino]-6-(2,3-dihydrobenzo[1,4]dioxine-6-carbonyl)-3-methoxy-5,6,7,8-tetrahydro-3H-pyrido[4,3-d]pyrimidin-4-one] reads 42 nM; that for `COn1c(N[C@H](c2ccc(Cl)cc2)C(C)C)nc2c(c1=O)CN(C(=O)c1ccc(-n3ccnc3)cc1)CC2` [Example 2481, 2-[(S)-1-(4-chlorophenyl)-2-methylpropylamino]-6-(4-imidazol-1-ylbenzoyl)-3-methoxy-5,6,7,8-tetrahydro-3H-pyrido[4,3-d]pyrimidin-4-one], 31 nM; that for `CC[C@H](Nc1nc2c(c(=O)n1OC)CN(C(=O)c1ccc(C#N)cc1F)CC2)c1ccc(C(F)(F)F)cc1` [Example 2482, 3-fluoro-4-{3-methoxy-4-oxo-2-[(S)-1-(4-trifluoromethylphenyl)propylamino]-3,5,7,8-tetrahydro-4H-pyrido[4,3-d]pyrimidine-6-carbonyl}benzonitrile], 8 nM.
`COn1c(N[C@H](c2ccc(Cl)cc2)C(C)C)nc2c(c1=O)CN(C(=O)c1cc3ccccn3n1)CC2` [Example 2483, 2-[(S)-1-(4-chlorophenyl)-2-methylpropylamino]-3-methoxy-6-(pyrazolo[1,5-a]pyridine-2-carbonyl)-5,6,7,8-tetrahydro-3H-pyrido[4,3-d]pyrimidin-4-one] registered a Ki of 13 nM.
`COn1c(N[C@H](c2ccc(Cl)cc2)C(C)C)nc2c(c1=O)CN(C(=O)c1ccc3c(c1)CCC(=O)N3C)CC2` [Example 2487, 2-[(S)-1-(4-chlorophenyl)-2-methylpropylamino]-3-methoxy-6-(1-methyl-2-oxo-1,2,3,4-tetrahydro-quinoline-6-carbonyl)-5,6,7,8-tetrahydro-3H-pyrido[4,3-d]pyrimidin-4-one] came in with a Ki of 24 nM.
Same read-out and setting: the result for `COn1c(N[C@H](c2ccc(Cl)cc2)C(C)C)nc2c(c1=O)CN(C(=O)c1cc3ccccc3cn1)CC2` [Example 2489, 2-[(S)-1-(4-chlorophenyl)-2-methylpropylamino]-6-(isoquinoline-3-carbonyl)-3-methoxy-5,6,7,8-tetrahydro-3H-pyrido[4,3-d]pyrimidin-4-one] reads 26 nM.
Same read-out and setting: the result for `CCOc1ccc(CNc2nc3c(c(=O)n2OC)CN(C(=O)c2ccc(C#N)cc2F)CC3)cc1` [Example 2490, 4-[2-(4-ethoxybenzylamino)-3-methoxy-4-oxo-3,5,7,8-tetrahydro-4H-pyrido[4,3-d]pyrimidine-6-carbonyl]-3-fluorobenzonitrile] reads 237 nM.
`C#CCCn1c(N[C@@H](C)c2ccc(C(F)(F)F)cc2)nc2c(c1=O)CN(C(=O)c1ccc(C(=O)N(C)C)cc1)CC2` [Example 2494, 4-{3-(3-butynyl)-4-oxo-2-[(S)-1-(4-trifluoromethylphenyl)ethylamino]-3,5,7,8-tetrahydro-4H-pyrido[4,3-d]pyrimidine-6-carbonyl}-N,N-dimethylbenzamide]: the affinity corresponds to a Ki of 201 nM.
In turn, `COn1c(N[C@@H](C)c2ccc(Cl)cc2)nc2c(c1=O)CN(C(=O)c1cc3cccnc3s1)CC2` [Example 2495, 2-[(S)-1-(4-chlorophenyl)ethylamino]-3-methoxy-6-(thieno[2,3-b]pyridine-2-carbonyl)-5,6,7,8-tetrahydro-3H-pyrido[4,3-d]pyrimidin-4-one hydrochloride] had a Ki of 3 nM.

The values above are taken from US9206173B2, “Heterocyclic compounds for the treatment of stress-related conditions” (OTSUKA PHARMACEUTICAL CO., LTD., priority 2009, dated 2015).
